Data taken from ChEMBL document CHEMBL2057207, “Fluorometric detection of adenine in target DNA by exciplex formation with fluorescent 8-arylethynylated deoxyguanosine” (Bioorg Med Chem Lett, 2012).
Active and inactive are the calls of the source. The calls are words filed in the database; no cut-off is given here.

Assays:
Assay type in all cases: nucleic-acid assay
Nucleic Acid [1] = test: Binding affinity to DNA 3'-GCG TTA T ATT GCG-5' assessed as melting temperature
Nucleic Acid [2] = test: Binding affinity to DNA 3'-GCG TTA T ATT GCG-5' assessed as change in fluorescence emission at 2.5 uM by UV-Vis spectrophotometric analysis at pH 7
Nucleic Acid [3] = test: Binding affinity to DNA 3'-GCG TTA G ATT GCG-5' assessed as melting temperature
Nucleic Acid [4] = test: Binding affinity to DNA 3'-GCG TTA A ATT GCG-5' assessed as melting temperature
Nucleic Acid [5] = test: Binding affinity to DNA 3'-GCG TTA G ATT GCG-5' assessed as change in fluorescence emission at 2.5 uM by UV-Vis spectrophotometric analysis at pH 7
Nucleic Acid [6] = test: Binding affinity to DNA 3'-GCG TTA A ATT GCG-5' assessed as change in fluorescence emission at 2.5 uM by UV-Vis spectrophotometric analysis at pH 7
Nucleic Acid [7] = test: Binding affinity to DNA 3'-GCG TTA C ATT GCG-5' assessed as melting temperature
Nucleic Acid [8] = test: Binding affinity to DNA 3'-GCG TTA C ATT GCG-5' assessed as change in fluorescence emission at 2.5 uM by UV-Vis spectrophotometric analysis at pH 7
Nucleic Acid [9] = test: Binding affinity to DNA 3'-GCG TTA C ATT GCG-5' assessed as change in fluorescence emission at 2.5 uM by UV transilluminator analysis
Nucleic Acid [10] = test: Binding affinity to DNA 3'-GCG TTA T ATT GCG-5' assessed as change in fluorescence emission at 2.5 uM by UV transilluminator analysis
Nucleic Acid [11] = test: Binding affinity to DNA 3'-GCG TTA A ATT GCG-5' assessed as change in fluorescence emission at 2.5 uM by UV transilluminator analysis
Nucleic Acid [12] = test: Binding affinity to DNA 3'-GCG TTA G ATT GCG-5' assessed as change in fluorescence emission at 2.5 uM by UV transilluminator analysis

Tm (Nucleic Acid [1]) [°C] | Activity (Nucleic Acid [2]) | Tm (Nucleic Acid [3]) [°C] | Tm (Nucleic Acid [4]) [°C] | Activity (Nucleic Acid [5]) | Activity (Nucleic Acid [6]) | Tm (Nucleic Acid [7]) [°C] | Activity (Nucleic Acid [8]) | Activity (Nucleic Acid [9]) | Activity (Nucleic Acid [10]) | Activity (Nucleic Acid [11]) | Activity (Nucleic Acid [12]) | SMILES
42.8 | inactive | 46.2 | 52.2 | inactive | Active | 45.5 | inactive |  |  |  |  | COc1cc(OC)c(C#Cc2nc3c(=O)[nH]c(N)nc3n2[C@H]2C[C@H](OP(=O)(O)OC[C@H]3O[C@@H](n4cc(C)c(=O)[nH]c4=O)C[C@@H]3OP(=O)(O)OC[C@H]3O[C@@H](n4cnc5c(N)ncnc54)C[C@@H]3OP(=O)(O)OC[C@H]3O[C@@H](n4cnc5c(N)ncnc54)C[C@@H]3OP(=O)(O)OC[C@H]3O[C@@H](n4ccc(N)nc4=O)C[C@@H]3OP(=O)(O)OC[C@H]3O[C@@H](n4cnc5c(=O)[nH]c(N)nc54)C[C@@H]3OP(=O)(O)OC[C@H]3O[C@@H](n4ccc(N)nc4=O)C[C@@H]3O)[C@@H](COP(=O)(O)O[C@H]3C[C@H](n4cc(C)c(=O)[nH]c4=O)O[C@@H]3COP(=O)(O)O[C@H]3C[C@H](n4cnc5c(N)ncnc54)O[C@@H]3COP(=O)(O)O[C@H]3C[C@H](n4cnc5c(N)ncnc54)O[C@@H]3COP(=O)(O)O[C@H]3C[C@H](n4ccc(N)nc4=O)O[C@@H]3COP(=O)(O)O[C@H]3C[C@H](n4cnc5c(=O)[nH]c(N)nc54)O[C@@H]3COP(=O)(O)O[C@H]3C[C@H](n4ccc(N)nc4=O)O[C@@H]3CO)O2)c(OC)c1
46.7 | inactive | 49.6 | 49.2 | inactive | Active | 49.4 | inactive |  |  |  |  | COc1ccc(C#Cc2nc3c(=O)[nH]c(N)nc3n2[C@H]2C[C@H](OP(=O)(O)OC[C@H]3O[C@@H](n4cc(C)c(=O)[nH]c4=O)C[C@@H]3OP(=O)(O)OC[C@H]3O[C@@H](n4cnc5c(N)ncnc54)C[C@@H]3OP(=O)(O)OC[C@H]3O[C@@H](n4cnc5c(N)ncnc54)C[C@@H]3OP(=O)(O)OC[C@H]3O[C@@H](n4ccc(N)nc4=O)C[C@@H]3OP(=O)(O)OC[C@H]3O[C@@H](n4cnc5c(=O)[nH]c(N)nc54)C[C@@H]3OP(=O)(O)OC[C@H]3O[C@@H](n4ccc(N)nc4=O)C[C@@H]3O)[C@@H](COP(=O)(O)O[C@H]3C[C@H](n4cc(C)c(=O)[nH]c4=O)O[C@@H]3COP(=O)(O)O[C@H]3C[C@H](n4cnc5c(N)ncnc54)O[C@@H]3COP(=O)(O)O[C@H]3C[C@H](n4cnc5c(N)ncnc54)O[C@@H]3COP(=O)(O)O[C@H]3C[C@H](n4ccc(N)nc4=O)O[C@@H]3COP(=O)(O)O[C@H]3C[C@H](n4cnc5c(=O)[nH]c(N)nc54)O[C@@H]3COP(=O)(O)O[C@H]3C[C@H](n4ccc(N)nc4=O)O[C@@H]3CO)O2)c2ccccc12
45.1 | inactive | 49.8 | 49.7 | inactive | Active | 50.5 | inactive | Active | Active | Active | Active | COc1ccc(C#Cc2nc3c(=O)[nH]c(N)nc3n2[C@H]2C[C@H](OP(=O)(O)OC[C@H]3O[C@@H](n4cc(C)c(=O)[nH]c4=O)C[C@@H]3OP(=O)(O)OC[C@H]3O[C@@H](n4cnc5c(N)ncnc54)C[C@@H]3OP(=O)(O)OC[C@H]3O[C@@H](n4cnc5c(N)ncnc54)C[C@@H]3OP(=O)(O)OC[C@H]3O[C@@H](n4ccc(N)nc4=O)C[C@@H]3OP(=O)(O)OC[C@H]3O[C@@H](n4cnc5c(=O)[nH]c(N)nc54)C[C@@H]3OP(=O)(O)OC[C@H]3O[C@@H](n4ccc(N)nc4=O)C[C@@H]3O)[C@@H](COP(=O)(O)O[C@H]3C[C@H](n4cc(C)c(=O)[nH]c4=O)O[C@@H]3COP(=O)(O)O[C@H]3C[C@H](n4cnc5c(N)ncnc54)O[C@@H]3COP(=O)(O)O[C@H]3C[C@H](n4cnc5c(N)ncnc54)O[C@@H]3COP(=O)(O)O[C@H]3C[C@H](n4ccc(N)nc4=O)O[C@@H]3COP(=O)(O)O[C@H]3C[C@H](n4cnc5c(=O)[nH]c(N)nc54)O[C@@H]3COP(=O)(O)O[C@H]3C[C@H](n4ccc(N)nc4=O)O[C@@H]3CO)O2)cc1
 | inactive |  |  | inactive | inactive |  | inactive |  |  |  |  | Cc1cn([C@H]2C[C@H](OP(=O)(O)OC[C@H]3O[C@@H](n4c(C#Cc5ccccc5)nc5c(=O)[nH]c(N)nc54)C[C@@H]3OP(=O)(O)OC[C@H]3O[C@@H](n4cc(C)c(=O)[nH]c4=O)C[C@@H]3OP(=O)(O)OC[C@H]3O[C@@H](n4cnc5c(N)ncnc54)C[C@@H]3OP(=O)(O)OC[C@H]3O[C@@H](n4cnc5c(N)ncnc54)C[C@@H]3OP(=O)(O)OC[C@H]3O[C@@H](n4ccc(N)nc4=O)C[C@@H]3OP(=O)(O)OC[C@H]3O[C@@H](n4cnc5c(=O)[nH]c(N)nc54)C[C@@H]3OP(=O)(O)OC[C@H]3O[C@@H](n4ccc(N)nc4=O)C[C@@H]3O)[C@@H](COP(=O)(O)O[C@H]3C[C@H](n4cnc5c(N)ncnc54)O[C@@H]3COP(=O)(O)O[C@H]3C[C@H](n4cnc5c(N)ncnc54)O[C@@H]3COP(=O)(O)O[C@H]3C[C@H](n4ccc(N)nc4=O)O[C@@H]3COP(=O)(O)O[C@H]3C[C@H](n4cnc5c(=O)[nH]c(N)nc54)O[C@@H]3COP(=O)(O)O[C@H]3C[C@H](n4ccc(N)nc4=O)O[C@@H]3CO)O2)c(=O)[nH]c1=O
